Patent US8217189B2, “Chromenone potassium channel blockers and uses thereof” (Bionomics Limited, priority 2006, dated 2012)

These compounds were tested against T1, human Kv1.3 ion channel (Homo sapiens, UniProt P22001) (assay: Inhibition of Kv1.3 currents, planar patch clamp in human Jurkat cells). Conditions: Jurkat cells endogenously expressing hKv1.3, averaged dose response data from 3 or more cells.
T1 construct: Human Jurkat cells (which endogenously express hKv1.3) were used in place of rat L929 cells; endogenous in cells; host or cells: human Jurkat cells
T1 sequence (P22001 whole entry): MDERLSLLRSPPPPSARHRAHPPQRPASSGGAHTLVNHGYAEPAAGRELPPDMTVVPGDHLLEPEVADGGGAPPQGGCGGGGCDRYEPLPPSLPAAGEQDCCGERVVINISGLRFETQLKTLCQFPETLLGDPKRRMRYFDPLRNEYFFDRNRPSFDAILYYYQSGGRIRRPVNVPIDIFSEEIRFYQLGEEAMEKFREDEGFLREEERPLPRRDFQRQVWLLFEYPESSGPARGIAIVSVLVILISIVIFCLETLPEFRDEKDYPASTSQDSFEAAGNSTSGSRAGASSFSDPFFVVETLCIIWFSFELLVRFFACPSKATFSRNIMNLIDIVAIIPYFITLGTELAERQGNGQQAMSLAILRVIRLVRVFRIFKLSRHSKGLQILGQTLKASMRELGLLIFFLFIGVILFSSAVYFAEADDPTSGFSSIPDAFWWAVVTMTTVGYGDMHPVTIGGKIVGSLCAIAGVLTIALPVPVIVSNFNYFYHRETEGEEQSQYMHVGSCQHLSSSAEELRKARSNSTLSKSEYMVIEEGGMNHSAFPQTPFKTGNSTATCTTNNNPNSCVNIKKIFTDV
Format: cell-based
Method: Potency of compounds to inhibit the human Kv1.3 ion channel were determined as follows:
EC50 values for inhibition of Kv1.3 currents were determined by the method according to Schmitz et al (2005) Molecular Pharmacology 68, 1254-1270 with the following differences:
1. Human Jurkat cells (which endogenously express hKv1.3) were used in place of rat L929 cells.
2. All electrophysiology was performed using planar patch clamp (Port-A-Patch, Nanion Technologies Gmbh, Munich) in contrast to conventional patch clamp.
3. EC50 values shown were determined from averaged dose response data obtained from 3 or more cells.

| SMILES | EC50 [nM] |
| --- | --- |
| CN(C)Cc1cc(=O)c2c(OCCCCOc3ccccc3)c3ccoc3cc2o1 [Example 5, 7-Dimethylaminomethyl-4-(4-phenoxybutoxy)-furo[3,2-g]chromen-5-one] | 1420 |
| Cc1c2ccoc2c(OCCCc2ccccc2)c2oc(CN3CCOCC3)cc(=O)c12 [Example 3, 4-Methyl-7-(morpholin-4-ylmethyl)-9-(3-phenylpropoxy)furo[3,2-g]chromen-5-one] | 190 |
| COc1c2ccoc2c(OCCCc2ccccc2)c2oc(CN(C)C)cc(=O)c12 [7 c)] | 270 |
| Cc1c2ccoc2c(OCCCc2ccccc2)c2oc(CS(C)(=O)=O)cc(=O)c12 [Example 9, 7-Methanesulfonylmethyl-4-methyl-9-(phenyl-propoxy)-furo[3,2-g]chromen-5-one] | 200 |
| CSCc1cc(=O)c2c(C)c3ccoc3c(OCCCc3ccccc3)c2o1 [1 c)] | 30 |

These reach a lower EC50. Values come first.

| EC50 [nM] | SMILES |
| --- | --- |
| 29 | Cc1c2ccoc2c(OCCCc2ccccc2)c2oc(CN(C)C)cc(=O)c12 [Example 2, 7-Dimethylaminomethyl-4-methyl-9-(3-phenylpropoxy)furo[3,2-g]chromen-5-one] |
| 28 | Cc1c2ccoc2c(OCCCc2ccc(F)cc2)c2oc(CN(C)C)cc(=O)c12 [6 c)] |
| 14 | Cc1c2ccoc2c(OCC[C@@H](C)c2ccccc2)c2oc(CN(C)C)cc(=O)c12 [8 d)] |
